According to patent publication US8129137B2, “Two-photon probe for real-time monitoring of intracellular free zinc ions, method for preparing the probe and method for real-time monitoring of intracellular free zinc ions using the probe” (Korea University Industrial & Academic Collaboration …, priority 2008, dated 2012):

How the values were obtained:
[1] = Two-photon cross section and action spectra; type: physicochemical; conditions: in methanol in the presence of Zn2+; 780 nm
Procedure: The two-photon cross section (δ) was determined by using femto second (fs) fluorescence measurement technique.
The intensities of the two-photon induced fluorescence spectra of the reference and the sample probe were measured, and the two-photon cross section of the sample probe was calculated according to Equation 3:
[formula] wherein the subscripts s and r represent sample and reference molecules, respectively, δ represents the two-photon cross section, S represents the strength of signals collected by a CCD detector, φ represents the fluorescence quantum efficiency, φrepresents the total fluorescence collection efficiency of an experimental system, c represents the number density of the molecules within each of the solutions, and δr represents the two-photon cross section of reference molecules.
Referring to FIG. 9, the two-photon action spectra of the Zn^2+ complexes with AZn1 and AZn2 in the buffer solutions indicated a φδ value of ˜90 GM at 780 nm, 4˜24-fold larger than those of TSQ and FluZin-3.

[2] = Fluorescence quantum yield (Coumarin 307 as reference); type: physicochemical; conditions: in methanol in the presence of Zn2+
Procedure: The absorption spectra of the two-photon probes were recorded on a Hewlett-Packard 8453 diode array spectrophotometer, and the fluorescence spectra of the two-photon probes were obtained with an Amico-Bowman series 2 luminescence spectrometer with a 1 cm standard quartz cell. The fluorescence quantum yields of the two-photon probes were determined by using Coumarin 307 as the reference by the literature method (J. N. Demas, G. A. Crosby, J. Phys. Chem. 1971, 75, 991-1024.). FIGS. 2a and 2b are one-photon absorption and emission spectra of the two-photon probe AZn1, respectively, and FIGS. 2c and 2d are one-photon absorption and emission spectra of the two-photon probe AZn2, respectively.

δ, peak two-photon cross section [1]: 10 GM | φδ, two-photon action cross section [1]: 4 GM | fluorescence quantum yield φ [2]: 0.43
SMILES: COc1cc(NS(=O)(=O)c2ccc(C)cc2)c2ncccc2c1 [TSQ, reference compound]
